Entries after “also recorded” stand apart in the source; their conditions may differ. Like-named read-outs stand apart in the source and are kept apart here.
Experiments:
[1] = target: T1, human GHSR1a receptor (Homo sapiens, UniProt Q92847); assay: FLIPR assay in HEK293 cells stably expressing human GHSR1a receptor; format: cell-based; settings: read-out: EC50, agonist activity in FLIPR assay
T1 construct: expressed in transfected cells; host or cells: HEK293
Description: HEK293 cells stably expressing human GHSR1a receptor were used in FLIPR assay. Cells were maintained under standard procedures. One day prior the test, cells were seeded at a density of 1.5×10^4/well in a Matrigel® coated 384-well plate with 30 μl of complete DMEM medium, and incubated at 37° C. in 5% CO2 for 22-26 hrs. On the test day, 4× loading dye was added into each well (10 μl per well for 384 well plates). Assay plates were incubated at 37° C. in the dark for 30 minutes. Then the dye content was removed by centrifugation at 300 rpm for 30 s. 40 μL HBSS/Hepes with 1 mM probenicid was added with Platemate Matrix (low speed setting, Thermo). The plate was then placed in FLIPR Tetra (Molecular Device) and 5× working concentrations of agonists were added by FLIPR. Fluorescence signal was detected with FLIPR at room temperature according to standard settings.

[2] = target: T2, human GHSR1 receptor (Homo sapiens, UniProt Q92847); assay: [125I]Ghrelin binding assay on membranes from BHK cells; settings: 1 nM [125I]Ghrelin, BHK cell membranes
T2 construct: expressed in transfected cells; host or cells: BHK cells (membrane preparation)
T2 sequence (Q92847 whole entry): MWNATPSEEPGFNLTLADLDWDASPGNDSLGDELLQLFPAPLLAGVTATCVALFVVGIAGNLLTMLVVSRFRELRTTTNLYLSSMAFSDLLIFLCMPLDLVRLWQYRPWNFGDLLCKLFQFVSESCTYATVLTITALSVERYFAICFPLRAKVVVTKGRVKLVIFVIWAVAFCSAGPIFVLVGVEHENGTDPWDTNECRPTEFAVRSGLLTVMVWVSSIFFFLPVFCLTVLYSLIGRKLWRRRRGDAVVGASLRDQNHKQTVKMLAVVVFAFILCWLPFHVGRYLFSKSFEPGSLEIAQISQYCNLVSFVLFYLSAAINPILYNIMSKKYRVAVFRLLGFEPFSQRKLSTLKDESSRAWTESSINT
Description: In additional binding study, compound A was dissolved in DMSO and diluted with water in different range of concentrations. Membrane protein prepared from BHK cells stably expressing human GHSR1 receptor were used for binding assay. The membrane was diluted in assay buffer to yield 20 μg/well in 120 μl. The binding assay was set up in 96 well plate as following: 120 μl [^125I]Ghrelin (final concentration 1 nM) and 15 μl compound A (10×) diluted in the assay buffer. The reaction mixture was incubated at room temperature for 30 minutes before terminating by quick filtration onto GF/B filtration plate pre-soaked in 0.3% PEI using cell harvester (Perkin Elmer). The filter was washed three times and dried at 37° overnight. The radioactivity bound to filter membrane was measured with MicroBeta Trilux (Perkin Elmer).

[3] = mouse, in vivo
Description: Sixty female Balb/C mice weighing 20-25 g at start of experiment were used and divided into 4 groups of 15 mice each. […] Body weights were measured daily, immediately prior to the initiation of dosing.

[4] = system: cisplatin-treated Wistar rats; assay: Cisplatin study (body weight, food intake, von Frey testing); format: in vivo; settings: for Body Weight / Allodynia: Cisplatin 0.5 mg/kg (i.p.) for three days
Description: Compound A was made as a suspension in 0.5% carboxymethylcellulose solution in dosing volumes of 1 and 10 mL/kg for rats and mice respectively and dosed orally at 3, 10 or 30 mg/kg. […] Bortezomib was prepared in 10% Tween 80, 10% EtOH 100% and 80% saline solution and injected i.v. (1 mL/kg) at 0.2 mg/kg.
Fifty male Wistar rats weighing 250-300 g at start of experiment were randomly divided into 5 groups of 10 rats each. Group 1 received daily Compound A vehicle (p.o.) for 6 days and cisplatin vehicle (i.p.) for 3 days. Group 2 received Compound A vehicle (p.o) and 0.5 mg/kg cisplatin (i.p.) for 3 days followed by Compound A vehicle for 3 additional days. Group 3 received daily 3 mg/kg Compound A (p.o) and 0.5 mg/kg cisplatin (i.p.) for 3 days followed by 3 mg/kg Compound A for an additional 3 days. Group 4 received 10 mg/kg Compound A (p.o) and 0.5 mg/kg cisplatin (i.p.) for 3 days followed by 10 mg/kg Compound A for an additional 3 days. Group 5 received daily 30 mg/kg Compound A (p.o.) and 0.5 mg/kg cisplatin (i.p.) for 3 days followed by 30 mg/kg Compound A for an additional 3 days. In each case, cisplatin or cisplatin vehicle was dosed 30 min after Compound A or Compound A vehicle, which was dosed 1 hour prior to von Frey filament testing. Individual body weights and 24 h food intake were measured daily from just prior to initiation of dosing.
In the cisplatin study, rats were individually housed and acclimated to handling and to the Von Frey testing apparatus for several days prior to start of the experiment. Baseline measurements were obtained prior to dosing. Behavioral testing was conducted following procedures previously described (28). Each filament was tested 5 times and the test continued until 3 withdrawal responses to a particular filament were recorded.

[5] = system: oxaliplatin-treated Balb/C mice; settings: for Body Weight / IENFD / NCS: Oxaliplatin 6 mg/kg (i.p.) twice weekly for 4 weeks
[6] = system: proteasome activity; assay: Proteasome inhibition study in bortezomib-treated rats; format: in vivo, Wistar rats; settings: co-administration at different doses, preventive or therapeutic settings
Description: At baseline and after 8 weeks of treatment, caudal and digital nerve conduction and potential amplitude studies, behavioral tests (Dynamic) and blood collection to study proteasome inhibition were performed. After 8 weeks of treatment, tissue samples (sciatic and caudal nerves, DRG and foot pads) were collected and analyzed to study morphological parameters and intraepidermal nerve fibre density (IENFD).
At baseline and after 8 weeks of treatment, caudal and digital nerve conduction and potential amplitude studies and blood collection to study proteasome inhibition were performed. […] After 8 weeks of treatment, sciatic nerves, caudal nerves, DRG and foot pads were collected from all animals and analyzed to study morphological parameters and IENFDs.

[7] = rat, in vivo
[8] = dog, in vivo

T1 sequence (Q92847 whole entry): as above

## 3-(1-(2,3-dichloro-4-methoxyphenyl) ethyl)-1-methyl-1-(1,3,3-trimethylpiperidin-4-yl)urea monohydrochloride salt [Compound A]
[1]
  EC50: 1.25 ± 0.42 nM
[2]
  Ki: 1.42 ± 0.35 nM
[3]
  tissue penetration index (ratio of tissue/plasma) in DRG: 18-19 fold
  tissue penetration index (ratio of tissue/plasma) in SN: 9-12 fold
[3]; 10 mg/kg
  Tissue penetration index (DRG/plasma ratio): 17.6
  Tissue penetration index (SN/plasma ratio): 8.9
[3]; 30 mg/kg
  Tissue penetration index (DRG/plasma ratio): 18.9
  Tissue penetration index (SN/plasma ratio): 12.0
[3]; po, 30 mg/kg
  AUC0-∞ in sciatic nerve and DRG relative to plasma: 3-4 fold
  terminal half-life in plasma: approximately 1 h
  terminal half-life in sciatic nerve: approximately 4.7 h
[4]; Compound A dose 3
  Body Weight: +
[4]; Compound A dose 10
  Allodynia: +
  Body Weight: +
[4]; Compound A dose 30
  Allodynia: +
  Body Weight: +
[4]; Compound A 3 mg/kg p.o., monohydrochloride salt, 3 mg/kg
  cisplatin-induced mechanical hyperalgesia: no significant effect and not
[4]; Compound A 30 mg/kg, Days 3 thru 5
  paw withdrawal thresholds compared to vehicle-treated rats: significantly increased
[4]; Compound A 3, 10 and 30 mg/kg p.o.
  overall food intake compared to cisplatin alone: increased
[4]; Compound A 3, 10 and 30 mg/kg p.o., monohydrochloride salt
  body weight compared to cisplatin alone: increased; also recorded: improved
[4]; Compound A 10 and 30 mg/kg p.o. (FIG. 1B)
  food intake compared to cisplatin alone: improved
[4]; Compound A 10 and 30 mg/kg p.o., monohydrochloride salt
  cisplatin-induced mechanical hyperalgesia: significantly reduced; also recorded: significantly improved
[5]; Compound A 30 mg/kg
  improvement of digital potential amplitude vs. oxaliplatin-treated mice: 33+/−9%
[5]; Compound A 30 mg/kg (FIG. 2B)
  digital potential amplitude: able to normalize
[5]; Compound A 10 and 30 mg/kg
  oxaliplatin-induced decrease in digital and caudal NCV: significantly prevented
[5]; Compound A 10 and 30 mg/kg, monohydrochloride salt
  IENFD in footpads vs. vehicle treated mouse values: completely normalized; also recorded: completely normalised
[5]; Compound A 10 or 30 mg/kg
  weight loss compared to oxaliplatin treated mice: less weight loss
[5]; Compound A dose 10
  Body Weight: +
  IENFD: +
  NCS: +
[5]; Compound A dose 30
  Body Weight: +
  IENFD: +
  NCS: +
[5]; mouse, in vivo
  degenerative changes in DRG and sciatic nerve: did not cause any degenerative changes
[6]
  bortezomib-induced proteasome inhibition: did not impair
[7]
  F: 70.6%
[7]; iv
  2 hr brain concentration: 172. ng · g
  2 hr plasma concentration: 119.3 ng/mL
[7]; iv, 3 mg/kg
  AUC (0-t): 0.7015 µg·h/mL
  Cmax: 0.4684 µg/mL
  T1/2 z: 1.6 h
  Vz/F: 9.9 L/kg
[7]; po, 3 mg/kg
  AUC (0-t): 0.4953 µg·h/mL
  Cmax: 0.0586 µg/mL
  T1/2 z: 12.7 h
  Vz/F: 38.6 L/kg
  tmax: 3.3 h
[8]
  F: 31.2%
[8]; iv, 1 mg/kg
  T1/2 z: 1.6 h
  Vz/F: 3.7 L/kg
[8]; po, 2 mg/kg
  T1/2 z: 1.6 h
  Vz/F: 13.0 L/kg

— US12005056B2, “Centrally-active ghrelin agonist and medical uses thereof” (Helsinn Healthcare SA, priority 2018, dated 2024)
